What is called IC50 is the concentration needed to halve the response being measured.

Molecules are shown by their SMILES. A value given as a limit tells only on which side of the number the result lay.

In the first assay the target is T1, gamma-secretase (partially purified extract of IMR-32 cell membranes; substrate MBP-C125 Swe fusion protein, cleavage at the Aβ40 site) (Homo sapiens, UniProt P49768).
T1 construct: a partially purified extract of IMR-32 cell membranes as the gamma-secretase enzyme preparation; endogenous in cells; host or cells: IMR-32 cell membranes, partially purified extract
The assay can be described thus: Gamma-secretase APP enzyme assay (Example A). Particulars: class symbols; assay described in Example A; read-out: γAPP IC50. It is filed as biochemical. From the text: The gamma-secretase APP enzyme assay was designed to measure the specific proteolytic cleavage of an APP substrate (MBP-C125 Swe fusion protein) at the Aβ40 site. […] This assay involved two steps beginning with the enzymatic reaction generating a cleavage product that was captured with an immobilized antibody specific for the neo-epitope Aβ40 site. The captured cleavage product was then detected in a sandwich ELISA assay with a biotinylated reporter antibody that is specific to Aβ(17-28). Streptavidin-linked alkaline phosphatase was then added that would generate a fluorescent signal proportional to the amount of cleavage product.
This warmed solution of BigCHAPS (N,N-Bis(3-D-gluconamidopropyl)cholamide) detergent was used to dissolve Brain Extract Type-V (lipid containing a minimum of 40% phosphatidylethanolamine) from Sigma (St. Louis, Mo.) to a concentration of 8 mg/ml. This solution containing BigCHAPS and lipid at 8 mg/ml is then diluted to 0.53 mg/ml lipid with a pre-warmed solution of Hepes and sodium chloride.
Gamma-secretase was then added to a 96-well micro-titre plate and then incubated with various concentrations of inhibitor for 30 minutes at 37° C. MBPC125 substrate was then added to initiate the reaction that would run for two hours at 37° C. The reaction was quenched with the addition of SDS to a final concentration of 0.1% and then 100 μl of the reaction mixture was transferred to a capture ELISA plate and incubated overnight at 4° C. Detection of the cleavage product was performed using a standard sandwich ELISA assay and quantified using a six point standard curve.
`O=S(=O)(c1ccc(C(F)(F)F)cc1)N1C2c3c[nH]nc3C(F)(F)C1c1cccc(F)c12` (stereo not shown) [compound 127]: the 50% inhibitory concentration (IC50) was < 100 nM.

Consider `O=S(=O)(c1ccc(C(F)(F)F)cc1)N1C2c3c[nH]nc3C(F)(F)C1c1cccc(F)c12` (stereo not shown) [compound 128], for which the IC50 was < 100 nM.

Consider `O=S(=O)(c1ccc(C(F)(F)F)nc1)N1C2Cc3n[nH]cc3C1c1c(F)ccc(F)c12` (stereo not shown) [compound 131], for which the IC50 is < 100 nM.

As to `O=S(=O)(c1ccc(C(F)(F)F)cc1)N1C2Cc3[nH]ncc3C1CC(c1cccc(-n3ccnc3)c1)C2` (stereo not shown) [compound 132], the half-maximal inhibitory concentration (IC50) is < 100 nM.

Take `O=S(=O)(c1ccc(C(F)(F)F)cc1)N1C2Cc3[nH]ncc3C1CC(c1cccc(-n3cccn3)c1)C2` (stereo not shown) [compound 133]: the IC50 is < 100 nM. On the same count and under the same terms, under `O=S(=O)(c1ccc(C(F)(F)F)nc1)N1C2Cc3n[nH]cc3C1c1cccc(C3CC3)c1C2` (stereo not shown) [compound 134] stands < 100 nM; under `O=S(=O)(c1ccc(C(F)(F)F)nc1)N1C2Cc3c(C4CC4)cccc3C1Cc1n[nH]cc12` (stereo not shown) [compound 135], < 100 nM. The same measure, in the same setting: next, `Cn1ncc(C2CC3Cc4[nH]ncc4C(C2)N3S(=O)(=O)c2ccc(Cl)cc2)n1` (stereo not shown) [compound 140]: 100 to 499 nM; `O=C1CCCN1c1ccc(C2CC3Cc4n[nH]cc4C(C2)N3S(=O)(=O)c2ccc(C(F)(F)F)cc2)cc1` (stereo not shown) [compound 141]: < 100 nM. On the same count and under the same terms, next, `COC(=O)CCCNc1ccc(C2CC3Cc4n[nH]cc4C(C2)N3S(=O)(=O)c2ccc(C(F)(F)F)cc2)cc1` (stereo not shown) [compound 142]: < 100 nM; `O=C1c2n[nH]cc2C2c3cc(F)c(F)cc3C1N2S(=O)(=O)c1ccc(C(F)(F)F)nc1` (stereo not shown) [compound 148]: < 100 nM; `O=S(=O)(c1ccc(C(F)(F)F)nc1)N1C2Cc3n[nH]cc3C1c1c(F)ccc(F)c12` (stereo not shown) [compound 149]: 100 to 499 nM. `O=S(=O)(c1ccc(C(F)(F)F)nc1)N1C2Cc3n[nH]cc3C1c1c(F)ccc(F)c12` (stereo not shown) [compound 150]: the IC50 was < 100 nM. Still for that read-out and setting: next, `Cc1cc(F)cc2c1C1c3c[nH]nc3CC2N1S(=O)(=O)c1ccc(C(F)(F)F)nc1` (stereo not shown) [compound 159]: < 100 nM. On the same count and under the same terms, next, `O=S(=O)(c1ccc(C(F)(F)F)cc1)N1C2Cc3[nH]ncc3C1c1ccc3ccccc3c12` (stereo not shown) [compound 160]: < 100 nM. The same measure, in the same setting: next, `O=C1c2[nH]ncc2C2c3c(F)cccc3C1N2S(=O)(=O)c1ccc(C(F)(F)F)nc1` (stereo not shown) [compound 161]: < 100 nM; `O=S(=O)(c1ccc(C(F)(F)F)nc1)N1C2c3cn[nH]c3C(F)(F)C1c1cccc(F)c12` (stereo not shown) [compound 166]: < 100 nM.

Regarding `N#Cc1ccc2c(c1)C1Cc3n[nH]cc3C2N1S(=O)(=O)c1ccc(C(F)(F)F)nc1` (stereo not shown) [compound 167], the half-inhibitory concentration (IC50) was < 100 nM. As to `O=S(=O)(c1ccc(C(F)(F)F)cc1)N1C2Cc3[nH]ncc3C1c1ccc3ccccc3c12` (stereo not shown) [compound 168], the half-maximal inhibitory concentration (IC50) was < 100 nM. Same read-out and setting: under `O=S(=O)(c1ccc(C(F)(F)F)cc1)N1C2Cc3[nH]ncc3C1c1ccc3ccccc3c12` (stereo not shown) [compound 169] stands 100 to 499 nM. Same read-out and setting: next, `O=S(=O)(c1ccc(C(F)(F)F)cc1)N1C2Cc3[nH]ncc3C1c1c2ccc2ccccc12` (stereo not shown) [compound 170]: < 100 nM. Same read-out and setting: under `O=S(=O)(c1ccc(C(F)(F)F)cc1)N1C2Cc3[nH]ncc3C1c1c2ccc2ccccc12` (stereo not shown) [compound 171] stands 100 to 499 nM. Regarding `O=C1c2[nH]ncc2C2c3ccccc3C1N2S(=O)(=O)c1ccc(C(F)(F)F)cc1` (stereo not shown) [compound 173], the IC50 was < 100 nM. On the same count and under the same terms, under `O=S(=O)(c1ccc(C(F)(F)F)cc1)N1C2=Cc3c(-c4cccc(C(F)(F)F)c4)cccc3C1Cc1n[nH]cc12` (stereo not shown) [compound 177] stands < 100 nM; under `O=S(=O)(c1ccc(C(F)(F)F)nc1)N1C2Cc3n[nH]cc3C1c1cccc(F)c12` (stereo not shown) [compound 183], < 100 nM; under `O=S(=O)(c1ccc(C(F)(F)F)cc1)N1C2Cc3cccc(F)c3C1Cc1n[nH]cc12` (stereo not shown) [compound 190], < 100 nM. With `O=S(=O)(c1ccc(C(F)(F)F)cc1)N1C2Cc3cccc(F)c3C1Cc1n[nH]cc12` (stereo not shown) [compound 191], the IC50 was < 100 nM. Still for that read-out and setting: next, `O=S(=O)(c1ccc(C(F)(F)F)nc1)N1C2Cc3[nH]ncc3C1c1ccccc12` (stereo not shown) [compound 197]: < 100 nM; `O=C1c2n[nH]cc2C2c3ccccc3C1N2S(=O)(=O)c1ccc(C(F)(F)F)nc1` (stereo not shown) [compound 200]: < 100 nM. On the same count and under the same terms, under `Cc1noc(-c2ccc3c(c2)C2c4cn[nH]c4CC3N2S(=O)(=O)c2ccc(C(F)(F)F)nc2)n1` (stereo not shown) [compound 201] stands > 1000 nM.

Take `Cc1noc(-c2ccc3c(c2)C2c4cn[nH]c4CC3N2S(=O)(=O)c2ccc(C(F)(F)F)nc2)n1` (stereo not shown) [compound 202]: the IC50 was > 1000 nM. The same measure, in the same setting: next, `COC(=O)c1ccc2c(c1)C1c3cn[nH]c3CC2N1S(=O)(=O)c1ccc(C(F)(F)F)nc1` (stereo not shown) [compound 203]: > 1000 nM; `COC(=O)c1ccc2c(c1)C1c3cn[nH]c3CC2N1S(=O)(=O)c1ccc(C(F)(F)F)nc1` (stereo not shown) [compound 205]: 100 to 499 nM. Still for that read-out and setting: next, `O=S(=O)(c1ccc(C(F)(F)F)nc1)N1C2c3ccccc3C1[C@@H](F)c1n[nH]cc12` (stereo partly shown) [compound 206]: < 100 nM; `O=S(=O)(c1ccc(C(F)(F)F)nc1)N1C2c3c[nH]nc3[C@H](F)C1c1cccc(F)c12` (stereo partly shown) [compound 207]: < 100 nM; `O=S(=O)(c1ccc(C(F)(F)F)nc1)N1C2Cc3cccc(Br)c3[C@@H]1Cc1n[nH]cc12` [compound 212]: < 100 nM. Turning to `O=S(=O)(c1ccc(C(F)(F)F)nc1)N1C2Cc3cccc(Br)c3C1Cc1[nH]ncc12` (stereo not shown) [compound 213], the half-inhibitory concentration (IC50) was in the range of 100 to 499 nM. As for `O=S(=O)(c1ccc(C(F)(F)F)nc1)N1C2c3cn[nH]c3C(F)(F)C1c1c(F)cccc12` (stereo not shown) [compound 215], the half-inhibitory concentration (IC50) was < 100 nM. With `O=S(=O)(c1ccc(C(F)(F)F)nc1)N1C2c3c[nH]nc3[C@@H](O)C1c1c(F)cccc12` (stereo partly shown) [compound 216], the IC50 lay in the range of 100 to 499 nM. Take `O=S(=O)(c1ccc(C(F)(F)F)nc1)N1C2Cc3cccc(Br)c3C1c1cn[nH]c1C2` (stereo not shown) [compound 218]: the half-inhibitory concentration (IC50) is < 100 nM. Same read-out and setting: under `O=S(=O)(c1ccc(C(F)(F)F)nc1)N1C2Cc3[nH]ncc3C1c1cc(Cl)ccc12` (stereo not shown) [compound 221] stands 100 to 499 nM.

The assay is the same for the next values; noted with them: numeric bounds given instead of class symbols; assay described in Example A; read-out: γAPP IC50.
As for `Cn1ncc(C2CC3Cc4[nH]ncc4C(C2)N3S(=O)(=O)c2ccc(Cl)cc2)n1` (stereo not shown) [compound 139], the half-maximal inhibitory concentration (IC50) was > 300 nM. The same measure, in the same setting: under `Cc1cc(F)cc2c1C1c3c[nH]nc3CC2N1S(=O)(=O)c1ccc(C(F)(F)F)nc1` (stereo not shown) [compound 158] stands > 10 nM.

In the case of `O=S(=O)(c1ccc(C(F)(F)F)nc1)N1C2Cc3[nH]ncc3C1c1ccccc12` (stereo not shown) [compound 196], the IC50 was > 30 nM.

Staying with this assay, now noted: γAPP IC50 (nM), class symbols; assay described in Example A.
With `O=S(=O)(c1ccc(C(F)(F)F)nc1)N1C2Cc3n[nH]cc3C1c1c(F)cccc12` (stereo not shown) [compound 130], the concentration for half-maximal inhibition (IC50) is < 100 nM.

In turn, `O=S(=O)(c1ccc(C(F)(F)F)nc1)N1C2Cc3n[nH]cc3C1c1ncsc12` (stereo not shown) [compound 187] came in with an IC50 of 100 to 499 nM.

In the case of `O=S(=O)(c1ccc(C(F)(F)F)nc1)N1C2Cc3n[nH]cc3C1c1ncsc12` (stereo not shown) [compound 188], the half-inhibitory concentration (IC50) is > 1000 nM. Same read-out and setting: under `O=S(=O)(c1ccc(C(F)(F)F)nc1)N1C2Cc3n[nH]cc3C1c1ncsc12` (stereo not shown) [compound 189] stands 100 to 499 nM.

The same assay, now with this note: γAPP IC50 (nM), numeric bounds given instead of class symbols; assay described in Example A.
Take `O=S(=O)(c1ccc(C(F)(F)F)nc1)N1C2Cc3n[nH]cc3C1c1c(F)cccc12` (stereo not shown) [compound 129]: the half-maximal inhibitory concentration (IC50) was > 10 nM.

The values are drawn from patent US8283358B2, “N-sulfonamido polycyclic pyrazolyl compounds” (Elan Pharmaceuticals, Inc., priority 2008, dated 2012).
